The results in this text go back to PMC6152329, “Antitumoural Sulphur and Selenium Heteroaryl Compounds: Thermal Characterization and Stability Evaluation” (Molecules : A Journal of Synthetic Chemistry and Natural …, 2017).

The nature of data set [1]: Thermogravimetric (TG) analysis of thermal stability. The settings on record: nitrogen, 50 to 350 °C, 10 °C/min. The class given is physicochemical. The protocol:
The thermogravimetric (TG) studies were carried out with a Perkin–Elmer TGA-7 (Perkin Elmer, Inc. Watham, MA, USA) which was calibrated with alumel and nickel at 10 °C·min^−1. The calibration of the oven temperatures was carried out automatically and mass calibrated with a certified sample of 10 mg (ASTM E617, provided by Perkin Elmer, Inc. Watham, MA, USA). TG analyses were performed under a nitrogen atmosphere with a gas flow of 40 mL·min^−1, from 50 to 350 °C, at a heating rate of 10 °C·min^−1, using a sample of approximately 3 mg, in order to obtain the values of the Tonset and Tmax of the degradation process as well as any associated mass loss.

Data set [2] is described as follows: DSC successive melting-recrystallization cycles, polymorphic behaviour. The class given is physicochemical. The arrangement: key: I: Compounds that show a polymorphic phase transition into an amorphous or mainly amorphous solid form after a first melting–cooling scan; II: Compounds that change into a new polymorphic form with a different Tonset of fusion than the one observed at the first melting–recrystallization scan after cooling; III: These compounds show a fusion process without modifications in the thermal behaviour after an initial fusion–recrystallization cycle; IV: Compounds that show recrystallization or other types of phase transition of the original form into another crystalline one in the first heat scan; V: Compounds without fusion processes at the range of temperatures studied; *: fusion with decomposition. The settings on record: 10 °C/min. The protocol:
To establish general polymorphic behaviours, samples of all the compounds synthetized (Figure 1) were exposed to successive cycles of melting–recrystallization using DSC. Calorimetric analyses were performed before the beginning of the degradation process (Table 6). […] This behaviour was shown by several compounds: VA1C, VA2E, VA8E, series H, VA6I, VA8J, VA6M and VA8M. DSC and PXRD results of compound VA7H are shown as supplementary material (Figures S1 and S2 and Table S1). • Behaviour II—Compounds that change into a new polymorphic form with a different Tonset of fusion than the one observed at the first melting–recrystallization scan after cooling. These compounds are VA7E and VA8O. DSC and PXRD results of compound VA7E are shown as supplementary material (Figures S3 and S4, Table S2). • Behaviour III—These compounds show a fusion process without modifications in the thermal behaviour after an initial fusion–recrystallization cycle. Consequently, there is no evidence of polymorphic behaviour. The compounds VA2C, VA2M, VA4J and VA5O belong to this group. DSC and PXRD results of compound VA2M are shown as supplementary material (Figures S5 and S6, Table S3). • Behaviour IV—Compounds that show recrystallization or other types of phase transition of the original form into another crystalline one in the first heat scan. In the successive cycles of melting–recrystallization, the new form may not alter its crystalline form or transit to another polymorphic form. Compounds VA6E, VA7J and VA7M show this behaviour. • Behaviour V—Compounds without fusion processes at the range of temperatures studied.
For calorimetric studies a Perkin–Elmer DSC diamond calibrated with indium and zinc (provided by Perkin–Elmer (Perkin Elmer, Inc. Watham, MA, USA) and fabricated according to guideline ISO35) at 10 °C·min^−1 and nitrogen flow of 20 mL·min^−1 was employed. The gas connected to the equipment was nitrogen with a purity of 99.999%. Calorimetric analyses were carried out in aluminium capsules for volatilities of 10 μL, at a heating rate of 10 °C·min^−1, using a sample of approximately 3 mg, in order to establish the Tonset, Tmax and the enthalpy of fusion ∆Hf.
The calorimetric analyses started with the study of the thermal behaviour of the compounds before the process of degradation in order to evidence the possible existence of polymorphism. For this preliminary study, samples of all the compounds were exposed to successive cycles of heating–cooling. All samples were heated from 50 °C to temperatures 15–20 °C below Tonset of the degradation process, in order to ensure that compounds were not degraded (Table 6). After melting the samples, they were left at room temperature for enough time to allow the compounds to recrystallize before the successive thermal process. Additional cycles of heating–cooling were performed if polymorphism was detected.

Data set [3] concerns breast adenocarcinoma (MCF-7) cell line. Nature of the data set: MTT cell viability assay, 72 h, MCF-7. It is filed as cell-based, human. The method, then:
(§1) The novel synthetic compounds VA2J, VA4J, VA6G, VA6H, VA6I and VA6J were tested in breast adenocarcinoma (MCF-7) and non-malignant mammary-gland-derived (184B5) cell lines to be able to establish their potency and selectivity. The reference drug used was methylseleninic acid (MSA) as a Se-containing structure with promising in vitro and in vivo results against different tumour types. Results are expressed as the concentration that inhibits 50% cell growth (GI50), the concentration that inhibits completely cell growth (TGI) and the concentration that kills 50% of cells (LD50). The selectivity index (SI) is calculated as GI50(184B5)/GI50(MCF-7).
(§2) Cell lines were purchased from the American Type Culture Collection (ATCC, Barcelona, Spain). MCF7 cell lines were grown in Roswell Park Memorial Institute (RPMI) medium (Gibco, Madrid, Spain) supplemented with 10% fetal bovine serum (FBS; Gibco), 100 units/mL penicillin and […] (Gibco, Madrid, Spain). 184B5 cells were grown in DMEM/F12 medium supplemented with 5% FBS, 1x ITS (Lonza, Barcelona, Spain), 100 nM hydrocortisone (Sigma Aldrich, Madrid, Spain), 2 mM sodium pyruvate (Lonza), 20 ng/mL EGF (Sigma Aldrich, Madrid, Spain), 0.3 nM trans-retinoic acid (Sigma-Aldrich) 100 units/mL penicillin and […]. Cells were maintained at 37 °C and 5% CO2.
(§3) Compounds were dissolved in DMSO at a concentration of 0.01 M. Serial dilutions were prepared with non-supplemented medium. The cytotoxic effect of each compound was tested at eight different concentrations ranging between 0.01 and 100 µM.
(§4) A total of 10^4 cells/well in 96 well-plates were treated with either DMSO or increasing concentrations of the corresponding compound for 72 h and cell viability was determined using the MTT (3-(4,5-dimethylthiazol-2-yl)-2,5-diphenyltetrazolium bromide) (Sigma Aldrich, Madrid, Spain) assay. Briefly, cells were incubated with 50 µL of MTT (2 mg/mL stock) for 4 h. The medium was then removed by aspiration and the formazan crystals were dissolved in 150 µL of DMSO. The absorbance was measured at 550 nm in a microplate reader (Sunrise, Tecan, Männedorf, Switzerland). […] Data were obtained from at least three independent experiments performed in quadruplicate.
In general terms: Tetrazolium dyes change colour on reduction, which living cells bring about.

Data set [4] concerns non-malignant mammary-gland-derived (184B5) cell line. Nature of the data set: MTT cell viability assay, 72 h, 184B5. It is filed as cell-based. The settings on record: 184B5, 72 h. The protocol:
as §1, §2, §3, §4

Consider `N=C(N)SCc1ccc(-n2cccc2)cc1` [VA8P], for which, in data set [1], the “TG To (Tonset of thermal degradation)” value worked out at 199.8 °C. Moreover, the “DSC Behaviour (polymorphic/calorimetric behaviour)” value in data set [2] is recorded as “*”.
For `C[Se](=O)O` [MSA, methylseleninic acid, reference compound], the “SI (selectivity index)” value in data set [3] (GI50(184B5)/GI50(MCF-7)) came out at 1.40. The TGI in data set [3] (MCF-7, 72 h, MTT, concentration that completely inhibits cell growth) turned out to be 3430 nM; in data set [4] it was 3840 nM. The GI50 was 1280 nM in data set [3] (MCF-7, 72 h, MTT, concentration that inhibits 50% cell growth) and 1790 nM in data set [4]. The LD50 was more than 100 µM in data set [3] (MCF-7, 72 h, MTT, concentration that kills 50% of cells) and more than 100 µM in data set [4].
As to `N=C(N)[Se]Cc1cc2c(cc1Br)OCO2` [VA7E], the “TG To (Tonset of thermal degradation)” value in data set [1] was determined as 205.2 °C. Moreover, the “DSC Behaviour (polymorphic/calorimetric behaviour)” value in data set [2] is “II”.
The corresponding values for `Sc1ccnc(S)n1` [VA2B] are 263.3 °C and “V”.
For `N=C(N)SCc1nc2ccccc2nc1CSC(=N)N` [VA8J], in that order: 251.05 °C and “I”.
As to `N=C(N)SCc1ccc2c(c1)C(=O)c1ccccc1C2=O` [VA8G], the “TG To (Tonset of thermal degradation)” value in data set [1] stood at 243.7 °C. Moreover, the “DSC Behaviour (polymorphic/calorimetric behaviour)” value in data set [2] was “V”.
For `CSc1nc2ccccc2s1` [VA4C], in that order: 131.8 °C and “V”.
The corresponding values for `[SeH]Cc1c2ccccc2nc2ccccc12` [VA1D] are 244.7 °C and “V”.
As for `N=C(N)SCc1ccc([N+](=O)[O-])o1` [VA8F], the “TG To (Tonset of thermal degradation)” value in data set [1] was 190.8 °C. Further, the “DSC Behaviour (polymorphic/calorimetric behaviour)” value in data set [2] is reported as “*”.
For `CSc1ccc2ccccc2n1` [VA4H], in that order: 105.6 °C and “I”.
The corresponding values for `COc1cc2oc(=O)cc(CSC(=N)N)c2cc1OC` [VA8I] are 272.4 °C and “*”.
The corresponding values for `Cc1noc(C)c1C[Se]C(=N)N` [VA7O] are 185.9 °C and “V”.
`N=C(N)[Se]CN1C(=O)c2ccccc2C1=O` [VA7M]: in data set [1], the “TG To (Tonset of thermal degradation)” value was 255.8 °C. The “DSC Behaviour (polymorphic/calorimetric behaviour)” value in data set [2] is recorded as “IV”.
As to `N=C(N)SCN1C(=O)c2ccccc2C1=O` [VA8M], the “TG To (Tonset of thermal degradation)” value in data set [1] amounted to 233.1 °C. Besides, in data set [2], the “DSC Behaviour (polymorphic/calorimetric behaviour)” value was “I”.
For `N#C[Se]Cc1ccc(-n2cccc2)cc1` [VA5P], in that order: 149.4 °C and “*”.
For `N#CSCc1c2ccccc2nc2ccccc12` [VA6D], in that order: 205.0 °C and “V”.
For `N=C(N)SCc1c2ccccc2nc2ccccc12` [VA8D], in data set [1], the “TG To (Tonset of thermal degradation)” value is 193.1 °C. In addition, the “DSC Behaviour (polymorphic/calorimetric behaviour)” value in data set [2] is given as “*”.
Consider `[SeH]c1nc2ccccc2s1` [VA1C], for which the “TG To (Tonset of thermal degradation)” value in data set [1] was determined as 218.4 °C. In data set [2], the “DSC Behaviour (polymorphic/calorimetric behaviour)” value is “I”.
For the compound `COc1cc2oc(=O)cc(C[Se]C(=N)N)c2cc1OC` [VA7I], the “TG To (Tonset of thermal degradation)” value in data set [1] is 226.4 °C. Further, in data set [2], the “DSC Behaviour (polymorphic/calorimetric behaviour)” value is “*”.
For `SCc1cc2c(cc1Br)OCO2` [VA2E], in that order: 266.2 °C and “I”.
For `N=C(N)[Se]Cc1ccc2c(c1)C(=O)c1ccccc1C2=O` [VA7G], in that order: 198.2 °C and “V”.
For `N=C(N)[Se]Cc1ccc([N+](=O)[O-])o1` [VA7F], in that order: 214.7 °C and “*”.
For `N=C(N)[Se]Cc1ccc(-n2cccc2)cc1` [VA7P], the “TG To (Tonset of thermal degradation)” value in data set [1] turned out to be 175.8 °C. Also, the “DSC Behaviour (polymorphic/calorimetric behaviour)” value in data set [2] is recorded as “*”.
The corresponding values for `N=C(N)SCc1ccc2ccccc2n1` [VA8H] are 190.2 °C and “I”.
For `N=C(N)[Se]Cc1ccc2ccccc2n1` [VA7H], in that order: 145.8 °C and “I”.
For `CSc1ccnc(SC)n1` [VA4B], in that order: 103.5 °C and “V”.
For the compound `N=C(N)SCc1cc2c(cc1Br)OCO2` [VA8E], the “TG To (Tonset of thermal degradation)” value in data set [1] worked out at 215.1 °C. Further, in data set [2], the “DSC Behaviour (polymorphic/calorimetric behaviour)” value is on record as “I”.
In the case of `N#CSCN1C(=O)c2ccccc2C1=O` [VA6M], the “TG To (Tonset of thermal degradation)” value in data set [1] is 164.8 °C. Besides, the “DSC Behaviour (polymorphic/calorimetric behaviour)” value in data set [2] was “I”.
The corresponding values for `Cc1noc(C)c1C[Se]C#N` [VA5O] are 141.7 °C and “III”.
With `Sc1nc2ccccc2s1` [VA2C], in data set [1], the “TG To (Tonset of thermal degradation)” value was 224.7 °C. Also, the “DSC Behaviour (polymorphic/calorimetric behaviour)” value in data set [2] was “III”.
The corresponding values for `Cc1noc(C)c1CSC(=N)N` [VA8O] are 201.8 °C and “II”.
For `O=C1c2ccccc2C(=O)N1CS` [VA2M], in that order: 166.0 °C and “III”.

One may read the TGI as the concentration at which net growth stops. What is called GI50 is the concentration that inhibits growth by half.
